Experimental data: EP4799624A2 (priority 2021, dated 2023)
Converted amounts (≈) assume the structure as drawn. Where two headings read alike, the source gives them in different places.

Experiments:
SARS-CoV-2 [1] = details: for activity in the HeLa-ACE2 cell-based SARS-CoV-2 assay: 35 ActivPred compounds tested; for Nh (Hill) coefficient: dose curves fitted with the four parameter Hill Equation
[2] = in vivo, cited from earlier work
SARS-CoV-2 [3] = details: Day 4, cited from earlier work
SARS-CoV-2 [4] = experiment: microbe, parasite or virus in culture
[5] = single oral doses 1-200 mg; cited from earlier work
[6] = rat and monkey studies; cited from earlier work
[7] = rat, in vivo
in vivo = details: rat, po, 1000 mg/kg
[8] = for adverse reactions / clinical signs: PO 50 and 250 mg/kg, single and 5 days, female 129S1 mice; for Mean: mean of 3 mice (± SD in Table 16); for AUC∞: extrapolated to ∞
SARS-CoV-2/WA1 = assay type: cell-based, SARS-CoV-2 isolate USA-WA1/2020; details: Severe acute respiratory syndrome coronavirus 2, HeLa-ACE2, read-out: SARS-CoV-2 IC50 value
A/WSN/33 = experiment: Influenza antiviral assay (IF-based) in A549 cells; assay type: cell-based, H1N1 influenza A virus; details: Influenza A virus, A549, 24 h
[9] = range for all doses (10-200 mg), human plasma, cited from earlier work
SARS-CoV-2 [10] = details: cited from earlier work
[11] = ReFRAME study A00511; cited from earlier work
[12] = human liver slices and microsomes; cited from earlier work
COVID-19 = details: ReFRAME study A00473; cited from earlier work
[13] = values compared in Example 2; cited from earlier work
SARS-CoV-2 [14] = details: same methods as used in this study; cited from earlier work
Ebola VLP entry = details: cited from earlier work
[15] = Severe acute respiratory syndrome coronavirus 2, HeLa-ACE2, 24 h
[16] = lung, 250 mg/kg PO five consecutive days (Group 2, MD)
[17] = plasma, 50 mg/kg PO five consecutive days (Group 1, MD)
[18] = plasma, 50 mg/kg PO single dose (Group 1, SD)
[19] = plasma, 50 mg/kg PO single dose (Group 1, SD), 50 mg/kg
[20] = plasma, 250 mg/kg PO five consecutive days (Group 2, MD)
[21] = plasma, 250 mg/kg PO single dose (Group 2, SD)

## Cc1c2c(nn1C)CSCc1cc(n(C)n1)CSc1cc(c3ccccc3c1)OCCCc1c(C(=O)O)n(C)c3c-2c(Cl)ccc13 [AZD-5991]
SARS-CoV-2 [1]
  activity in the HeLa-ACE2 cell-based SARS-CoV-2 assay: demonstrated activity

## Cc1c(-c2ccc(O)cc2)n(Cc2ccc(OCCN3CCCCCC3)cc2)c2ccc(O)cc12 [Bazedoxifene, reference compound]
[2]; human
  dose safely tolerated: 20 mg/day
[2]; rat
  dose safely tolerated: 100 mg/kg/day

## CNCc1ccc(-c2cc(-c3nc(-c4ccc(S(=O)(=O)C(C)C)cc4)cnc3N)on2)cc1 [Berzosertib, reference compound]
SARS-CoV-2 [1]
  activity in the HeLa-ACE2 cell-based SARS-CoV-2 assay: demonstrated activity
  Nh (Hill) coefficient: 1.485

## CC(C)(C)[C@H](NC(=O)C(F)(F)F)C(=O)N1C[C@H]2[C@@H]([C@H]1C(=O)N[C@H](C#N)C[C@@H]1CCNC1=O)C2(C)C [Nirmatrelvir]
SARS-CoV-2 [3]; 300 mg/kg
  log reduction in viral load: 1.4 log
SARS-CoV-2 [3]; 1000 mg/kg BID
  reduction in viral load: 1.91 log10 CCID50/mL
SARS-CoV-2 [3]; 1000 mg/kg
  log reduction in viral load: 1.9 log

## COc1cc(Cl)cc(C(C)Nc2cc(N3CCNCC3)ccc2S(C)(=O)=O)c1OC.Cl (stereo not drawn) [PRX-07034]
SARS-CoV-2 [1]
  activity in the HeLa-ACE2 cell-based SARS-CoV-2 assay: demonstrated activity

## Cc1c(-c2ccc(O)cc2)n(Cc2ccc(OCCN3CCCCC3)cc2)c2ccc(O)cc12 [Pipendoxifene, 2-(4-hydroxyphenyl)-3-methyl-1-[[4-(2-piperidin-1-ylethoxy)phenyl]methyl]indol-5-ol]
[2]; human
  dose safely tolerated: up to 200 mg/daily
[2]; mouse
  dose safely tolerated: at least 20 mg/kg/day
SARS-CoV-2 [4]; Severe acute respiratory syndrome coronavirus 2, HeLa-ACE2
  EC90: 14.3 µM
SARS-CoV-2 [4]; [15]
  EC10: 5.01 µM
  EC50: < 9.6 µM
SARS-CoV-2 [4]; Severe acute respiratory syndrome coronavirus 2, HeLa-ACE2, calculated with the Hill equation (Equation I) from nH 4 and EC10
  EC90: 15 µM
SARS-CoV-2 [4]; Severe acute respiratory syndrome coronavirus 2, HeLa-ACE2, read-out: EC90 range, range from Equations I and II
  EC90: 14.3 to 15 µM
[5]
  tolerability: well tolerated with only mild transient adverse events observed at all doses
[6]
  primary metabolite: primarily metabolized to an indole glucuronide
[7]
  Cmax: 311 1 42 ng/mL
  Lung C24h exceeding the IC50 value: 5.4 fold
[7]; po
  plasma t1/2: 4.71 to 6.06 h
[7]; po, 250 mg/kg
  AUClast ± SE: 3515 ± 980 ng·h/mL
[7]; po, 750 mg/kg
  AUClast ± SE: 5260 ± 1970 ng·h/mL
In vivo
  concentration at 6 h: 501 ng/mL
[8]; Group 2, MD (multiple, 5-day, dose) 250 mg/kg oral, 8.0 hr
  Average plasma concentration: 575 ± 194 ng/mL
[8]
  adverse reactions / clinical signs: no adverse events at doses up to 250mg/kg
[8]; listed as pipendoxifene
  adverse reactions / clinical signs: No adverse reactions were observed
[8]; lung tissue, individual mice, 50 mg/kg PO single dose, 8.0 hr, 50 mg/kg, 480 min
  Conc.: 7840 ng/g
[8]; lung tissue, 50 mg/kg PO five consecutive days, 8.0 hr, 50 mg/kg, 480 min
  Mean: 5613 ± 1602 ng/g
[8]; lung tissue, 50 mg/kg PO single dose, 4.0 hr, 50 mg/kg, 240 min
  Mean: 8310 ± 630 ng/g
[8]; lung tissue, 250 mg/kg PO five consecutive days, 4.0 hr, 250 mg/kg, 240 min
  Mean: 39000 ± 15321 ng/g
[8]; lung tissue, 250 mg/kg PO single dose, 8.0 hr, 250 mg/kg, 480 min
  Mean: 24733 ± 17321 ng/g
[8]; lung, 50 mg/kg PO five consecutive days (Group 1, MD)
  tmax: 8.0 h
[8]; [16]
  MRTlast: 7.22 h
  tmax: 4.0 h
[8]; lung, 250 mg/kg PO single dose (Group 2, SD)
  tmax: 8.0 h
[8]; mouse, in vivo, po
  plasma t1/2: 2.36 to 3.96 h
[8]; [17]
  MRTlast: 7.10 h
  t1/2: 2.58 h
  tmax: 6.0 h
  AUC∞: 1396 ng·h/mL
[8]; plasma, 50 mg/kg PO five consecutive days (Group 1, MD), 50 mg/kg
  AUClast (hr·ng/mL) ± SE: 1391 ± 55 ng·h/mL
[8]; [18]
  MRTlast: 6.95 h
  t1/2: 2.36 h
  tmax: 2.0 h
  AUC∞: 1602 ng·h/mL
[8]; [19]
  AUClast (hr·ng/mL) ± SE: 1600 ± 115 ng·h/mL
  Cmax (ng/mL) ± SE: 179 ± 21 ng/mL
[8]; [20]
  t1/2: 2.52 h
  tmax: 6.0 h
  AUC∞: 11664 ng·h/mL
[8]; plasma, 250 mg/kg PO five consecutive days (Group 2, MD), 250 mg/kg
  AUClast (hr·ng/mL) ± SE: 11628 ± 1191 ng·h/mL
[8]; [21]
  MRTlast: 8.86 h
  t1/2: 3.96 h
  tmax: 6.0 h
  AUC∞: 10461 ng·h/mL
[8]; plasma, 250 mg/kg PO single dose (Group 2, SD), 250 mg/kg
  Cmax (ng/mL) ± SE: 1020 ± 693 ng/mL
[8]; plasma, 50 mg/kg PO five consecutive days, 1.0 hr, 50 mg/kg, 60 min
  Mean: 56.0 ± 20.7 ng/mL
[8]; plasma, 50 mg/kg PO single dose, 2.0 hr, 50 mg/kg, 120 min
  Mean: 179 ± 37 ng/mL
[8]; plasma, 250 mg/kg PO five consecutive days, 8.0 hr, 250 mg/kg, 480 min
  Mean: 575 ± 194 ng/mL
[8]; plasma, 250 mg/kg PO single dose, 6.0 hr, 250 mg/kg, 360 min
  Mean: 1020 ± 1200 ng/mL
SARS-CoV-2 [1]
  EC50: 8.24 µM
  activity in the HeLa-ACE2 cell-based SARS-CoV-2 assay: demonstrated activity
  Nh (Hill) coefficient: 4
SARS-CoV-2 [1]; listed as pipendoxifene
  EC50: 8.42 µM
SARS-CoV-2/WA1
  IC50: 0.328 µg/mL (≈ 0.718 µM)
A/WSN/33
  IC50: 7.49 µM
[9]
  mean terminal t1/2: 15.8 to 27.3 h
[9]; listed as pipendoxifene
  mean terminal t1/2: 15.8 to 27.3 h
SARS-CoV-2 [10]
  result in SARS-CoV-2/HeLa-ACE2 HCI assay - % infected cells: INACTIVE
[11]
  result in SARS CoV-2 CPE Cytotoxicity Assay: INACTIVE
[12]
  primary human metabolite: the same indole glucuronide as found in the preclinical models
COVID-19
  result in COVID-19 Cytopathic Effect (CPE) Assay: INACTIVE
[13]
  t ½: 15.8 to 27.3 h

## CCC(CC)COC(=O)[C@H](C)N[P@](=O)(OC[C@H]1O[C@@](C#N)(c2ccc3c(N)ncnn23)[C@H](O)[C@@H]1O)Oc1ccccc1 [Remdesivir, reference compound]
SARS-CoV-2 [4]; [15]
  EC50: 0.13 µM
SARS-CoV-2 [1]
  increase in EC50 from MOI=1 to MOI=26: 2.7 fold
[13]
  t ½: 1 h

## Cc1cccc(/C=N/Nc2cc(N3CCOCC3)nc(OCCc3ccccn3)n2)c1 [apilimod, reference compound]
SARS-CoV-2 [4]; Severe acute respiratory syndrome coronavirus 2, HeLa-ACE2, read-out: maximal efficacy
  Emax: 85 to 90%
SARS-CoV-2 [1]
  increase in EC50 from MOI=1 to MOI=26: 3.7 fold

## COc1ccc(C[C@H](N)C(=O)N[C@H]2[C@@H](O)[C@H](n3cnc4c(N(C)C)ncnc43)O[C@@H]2CO)cc1 [puromycin, reference compound]
SARS-CoV-2 [4]; Severe acute respiratory syndrome coronavirus 2, HeLa-ACE2, […], average ± sem of 5 independent experiments
  EC50: 0.547 ± 0.027 µM

## O=C(c1ccc(OCCN2CCCCC2)cc1)c1c(-c2ccc(O)cc2)sc2cc(O)ccc12 [raloxifene]
SARS-CoV-2 [14]
  EC50: 4.13 µM
Ebola VLP entry; Ebola VLP entry
  SI: > 10
Ebola VLP entry; speculated active compounds, read-out: IC50, block of Ebola VLP entry in vitro
  IC50: < 10 µM

## Nc1ncnc2c1nc(Cl)n2[C@@H]1O[C@@H]2COP(=O)(O)O[C@H]2[C@H]1O [tocladesine]
SARS-CoV-2 [1]
  activity in the HeLa-ACE2 cell-based SARS-CoV-2 assay: demonstrated activity
